Laboratory results published in patent US20250179103A1, “6-OXODECAHYDROPYRROLO[1,2-A][1,5]DIAZOCINE AND 6-OXODECAHYDRO-4H-PYRROLO[2,1-D][1,5]THIAZOCINE DERIVATIVES AS STAT3 AND STAT6 MODULATORS FOR THE TREATMENT OF CANCER AND INFLAMMATORY CONDITIONS” (Recludix Pharma, Inc., priority 2022, published 2025).

Assays:
[1] = target: T1, Recombinant STAT3 protein (STAT3(G127-I722)) (Homo sapiens, UniProt P40763); assay: STAT3 Fluorescence Polarization (FP) Assay; assay type: binding; settings: STAT3(G127-I722) 25 nM, probe 5-FAM-GpYLPQTV-NH2 2 nM, 45-minute incubation
T1 construct: Recombinant STAT3 protein (STAT3(G127-I722))
T1 sequence (P40763 127-722): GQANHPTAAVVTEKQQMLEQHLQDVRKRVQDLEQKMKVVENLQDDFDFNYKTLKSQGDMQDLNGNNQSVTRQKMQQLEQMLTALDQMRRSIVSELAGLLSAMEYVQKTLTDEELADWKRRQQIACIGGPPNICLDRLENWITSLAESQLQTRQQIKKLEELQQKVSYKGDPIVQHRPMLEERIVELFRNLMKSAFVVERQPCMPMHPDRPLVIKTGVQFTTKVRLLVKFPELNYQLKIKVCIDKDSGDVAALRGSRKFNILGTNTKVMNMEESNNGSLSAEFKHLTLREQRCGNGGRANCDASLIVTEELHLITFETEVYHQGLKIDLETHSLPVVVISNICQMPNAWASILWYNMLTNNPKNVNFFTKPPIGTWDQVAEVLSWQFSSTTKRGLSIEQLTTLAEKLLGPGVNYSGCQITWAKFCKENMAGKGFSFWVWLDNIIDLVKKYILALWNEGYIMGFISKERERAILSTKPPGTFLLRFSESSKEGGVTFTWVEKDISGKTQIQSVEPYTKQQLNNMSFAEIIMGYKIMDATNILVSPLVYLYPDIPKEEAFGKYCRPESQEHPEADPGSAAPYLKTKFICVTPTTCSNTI
Summary of the method: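 STAT3(G127-I722), 25 nM, was mixed with 2 nM 5-FAM-GpYLPQTV-NH2 probe in HEPES pH 7.4 buffer with 1% DMSO and serially diluted compound. FP (mP) was read after 45 min at room temperature. IC50 came from nonlinear regression.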

[2] = target: T2, Recombinant STAT6 protein (STAT6(W123-T658)) (Homo sapiens, UniProt P42226); assay: STAT6 Fluorescence Polarization (FP) Assay; assay type: binding; settings: STAT6(W123-T658) 250 nM, probe 5-FAM-ApYKPFQDLI-NH2 2 nM, 45-minute incubation
T2 construct: Recombinant STAT6 protein (STAT6(W123-T658))
T2 sequence (P42226 123-658): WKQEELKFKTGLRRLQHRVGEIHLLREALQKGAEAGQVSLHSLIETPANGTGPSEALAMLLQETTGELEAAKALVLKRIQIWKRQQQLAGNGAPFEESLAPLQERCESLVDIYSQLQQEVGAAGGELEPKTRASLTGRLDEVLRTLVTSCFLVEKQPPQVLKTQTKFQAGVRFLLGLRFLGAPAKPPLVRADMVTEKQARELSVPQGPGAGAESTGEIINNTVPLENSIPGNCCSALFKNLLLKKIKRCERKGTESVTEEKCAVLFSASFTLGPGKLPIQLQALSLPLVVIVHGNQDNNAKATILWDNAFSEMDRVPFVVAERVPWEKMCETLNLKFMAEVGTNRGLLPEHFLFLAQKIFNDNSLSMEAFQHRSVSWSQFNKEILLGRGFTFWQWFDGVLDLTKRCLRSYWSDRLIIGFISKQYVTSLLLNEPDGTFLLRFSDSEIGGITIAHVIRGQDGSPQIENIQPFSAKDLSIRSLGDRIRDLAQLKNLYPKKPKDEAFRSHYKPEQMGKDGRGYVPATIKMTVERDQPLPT
Summary of the method: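 Displacement of a fluorescent phosphotyrosine peptide (5-FAM-ApYKPFQDLI-NH2, 2 nM) from STAT6(W123-T658) (250 nM), 1% DMSO, pH 7.4 HEPES buffer. After 45 min at room temperature, polarization (mP) was plotted versus log compound concentration and fitted by nonlinear regression to give IC50.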

SMILES	IC50 [1] [µM]	IC50 [2] [µM]
CC(=O)N1CC[C@H]2CC[C@@H](C(=O)N3CC(c4cc[nH]c(=O)c4)CC34CC4)N2C(=O)[C@@H](NC(=O)c2ccc3ccc(C(F)(F)P(=O)(O)O)cc3c2)C1 (stereo partly drawn) [Compound 37, ((7-(((5S,8S,10aR)-3-acetyl-6-oxo-8-(6-(2-oxo-1,2-dihydropyridin-4-yl)-4-azaspiro[2.4]heptane-4-carbonyl)decahydropyrrolo[1,2-a][1,5]diazocin-5-yl)carbamoyl)naphthalen-2-yl)difluoromethyl)phosphonic acid]	> 10	≤ 0.3
CC(=O)N1CC[C@H](NC(=O)c2cc3cc(C(F)(F)P(=O)(O)O)ccc3s2)C(=O)N2[C@H](CC[C@H]2C(=O)N2CC(c3cccnc3)C2)C1 [Compound 40, ((2-(((5S,8S,10aR)-2-acetyl-6-oxo-8-(3-(pyridin-3-yl)azetidine-1-carbonyl)decahydropyrrolo[1,2-a][1,4]diazocin-5-yl)carbamoyl)benzo[b]thiophen-5-yl)difluoromethyl)phosphonic acid]	≤ 0.1	3 to 30
CC(=O)N1CC[C@H]2CC[C@@H](C(=O)N3C[C@@H](C#N)C[C@@H]3Cc3ccccc3)N2C(=O)[C@@H](NC(=O)c2cc3cc(C(F)(F)P(=O)(O)O)ccc3s2)C1 [Compound 42, ((2-(((5S,8S,10aR)-3-acetyl-8-((2R,4S)-2-benzyl-4-cyanopyrrolidine-1-carbonyl)-6-oxodecahydropyrrolo[1,2-a][1,5]diazocin-5-yl)carbamoyl)benzo[b]thiophen-5-yl)difluoromethyl)phosphonic acid]	1 to 10	0.3 to 3
CC(=O)N1CC[C@H]2CC[C@@H](C(=O)N3C[C@H](C#N)C[C@@H]3Cc3ccccc3)N2C(=O)[C@@H](NC(=O)c2cc3cc(C(F)(F)P(=O)(O)O)ccc3s2)C1 [Compound 43, ((2-(((5S,8S,10aR)-3-acetyl-8-((2R,4R)-2-benzyl-4-cyanopyrrolidine-1-carbonyl)-6-oxodecahydropyrrolo[1,2-a][1,5]diazocin-5-yl)carbamoyl)benzo[b]thiophen-5-yl)difluoromethyl)phosphonic acid]	1 to 10	0.3 to 3
CC(=O)N1CC[C@H]2CC[C@@H](C(=O)Nc3c(C)cc(-c4ccccc4)cc3C)N2C(=O)[C@@H](NC(=O)c2cc3cc(C(F)(F)P(=O)(O)O)ccc3s2)C1 [Compound 44, ((2-(((5S,8S,10aR)-3-acetyl-8-((3,5-dimethyl-[1,1′-biphenyl]-4-yl)carbamoyl)-6-oxodecahydropyrrolo[1,2-a][1,5]diazocin-5-yl)carbamoyl)benzo[b]thiophen-5-yl)difluoromethyl)phosphonic acid]	0.1 to 1	3 to 30
CC(=O)N1CC[C@H]2CC[C@@H](C(=O)N(C)c3ccccc3)N2C(=O)[C@@H](NC(=O)/C(C)=C/c2cccc(C(F)(F)P(=O)(O)O)c2)C1 [Compound 45, ((3-((E)-3-(((5S,8S,10aR)-3-acetyl-8-(methyl(phenyl)carbamoyl)-6-oxodecahydropyrrolo[1,2-a][1,5]diazocin-5-yl)amino)-2-methyl-3-oxoprop-1-en-1-yl)phenyl)difluoromethyl)phosphonic acid]	> 10	> 30
CC(=O)N1CC[C@H]2CC[C@@H](C(=O)Nc3ccc(-c4ccccc4)cc3)N2C(=O)[C@@H](NC(=O)c2cc3cc(C(F)(F)P(=O)(O)O)c(F)cc3s2)C1 [Compound 46, ((2-(((5S,8S,10aR)-8-([1,1′-biphenyl]-4-ylcarbamoyl)-3-acetyl-6-oxodecahydropyrrolo[1,2-a][1,5]diazocin-5-yl)carbamoyl)-6-fluorobenzo[b]thiophen-5-yl)difluoromethyl)phosphonic acid]	1 to 10	0.3 to 3
CC(=O)N1CC[C@H]2CC[C@@H](C(=O)N(C)c3ccc(C4(C)COC4)cc3)N2C(=O)[C@@H](NC(=O)c2cc3cc(C(F)(F)P(=O)(O)O)ccc3s2)C1 [Compound 47, ((2-(((5S,8S,10aR)-3-acetyl-8-(methyl(4-(3-methyloxetan-3-yl)phenyl)carbamoyl)-6-oxodecahydropyrrolo[1,2-a][1,5]diazocin-5-yl)carbamoyl)benzo[b]thiophen-5-yl)difluoromethyl)phosphonic acid]	1 to 10	0.3 to 3

More lines, now with the values ahead:

IC50 [1] [µM]	IC50 [2] [µM]	SMILES
0.1 to 1	0.3 to 3	CC(=O)N1CC[C@H]2CC[C@@H](C(=O)Nc3ccc(-c4ccccc4)cc3)N2C(=O)[C@@H](NC(=O)c2cc3c(F)c(C(F)(F)P(=O)(O)O)ccc3s2)C1 [Compound 48, ((2-(((5S,8S,10aR)-8-([1,1′-biphenyl]-4-ylcarbamoyl)-3-acetyl-6-oxodecahydropyrrolo[1,2-a][1,5]diazocin-5-yl)carbamoyl)-4-fluorobeno[b]thiophen-5-yl)difluoromethyl)phosphonic acid]
1 to 10	3 to 30	CC(=O)N1CC[C@H]2CC[C@@H](C(=O)N(C)c3ccc4oncc4c3)N2C(=O)[C@@H](NC(=O)c2cc3cc(C(F)(F)P(=O)(O)O)ccc3s2)C1 [Compound 49, ((2-(((5S,8S,10aR)-3-acetyl-8-(benzo[d]isoxazol-5-yl(methyl)carbamoyl)-6-oxodecahydropyrrolo[1,2-a][1,5]diazocin-5-yl)carbamoyl)benzo[b]thiophen-5-yl)difluoromethyl)phosphonic acid]
> 10	3 to 30	CC(=O)N1CC[C@H]2CC[C@@H](C(=O)N(C)c3ccccc3)N2C(=O)[C@@H](NC(=O)/C=C(\C)c2cccc(C(F)(F)P(=O)(O)O)c2)C1 [Compound 50, ((3-((E)-4-(((5S,8S,10aR)-3-acetyl-8-(methyl(phenyl)carbamoyl)-6-oxodecahydropyrrolo[1,2-a][1,5]diazocin-5-yl)amino)-4-oxobut-2-en-2-yl)phenyl)difluoromethyl)phosphonic acid]
> 10	3 to 30	CC(=O)N1CC[C@H]2CC[C@@H](C(=O)N(C)c3ccccc3)N2C(=O)[C@@H](NC(=O)/C=C/c2cccc(C(F)(F)P(=O)(O)O)c2)C1 [Compound 51, ((3-((E)-3-(((5S,8S,10aR)-3-acetyl-8-(methyl(phenyl)carbamoyl)-6-oxodecahydropyrrolo[1,2-a][1,5]diazocin-5-yl)amino)-3-oxoprop-1-en-1-yl)phenyl)difluoromethyl)phosphonic acid]
1 to 10	0.3 to 3	CC(=O)N1CC[C@H]2CC[C@@H](C(=O)N(C)c3ccc(-c4ccccc4)cc3)N2C(=O)[C@@H](NC(=O)c2cc3cc(C(F)(F)P(=O)(O)O)ccc3[nH]2)C1 [Compound 53, ((2-(((5S,8S,10aR)-8-([1,1′-biphenyl]-4-yl(methyl)carbamoyl)-3-acetyl-6-oxodecahydropyrrolo[1,2-a][1,5]diazocin-5-yl)carbamoyl)-1H-indol-5-yl)difluoromethyl)phosphonic acid]
1 to 10	0.3 to 3	CC(=O)N1CC[C@H]2CC[C@@H](C(=O)N(C)Cc3ccccc3)N2C(=O)[C@@H](NC(=O)c2cc3cc(C(F)(F)P(=O)(O)O)ccc3[nH]2)C1 [Compound 54, ((2-(((5S,8S,10aR)-3-acetyl-8-(benzyl(methyl)carbamoyl)-6-oxodecahydropyrrolo[1,2-a][1,5]diazocin-5-yl)carbamoyl)-1H-indol-5-yl)difluoromethyl)phosphonic acid]
1 to 10	0.3 to 3	CC(=O)N1CC[C@H]2CC[C@@H](C(=O)N(c3ccccc3)c3ccccc3)N2C(=O)[C@@H](NC(=O)c2cc3cc(C(F)(F)P(=O)(O)O)ccc3[nH]2)C1 [Compound 55, ((2-(((5S,8S,10aR)-3-acetyl-8-(diphenylcarbamoyl)-6-oxodecahydropyrrolo[1,2-a][1,5]diazocin-5-yl)carbamoyl)-1H-indol-5-yl)difluoromethyl)phosphonic acid]
1 to 10	0.3 to 3	CC(=O)N1CC[C@H]2CC[C@@H](C(=O)N(Cc3ccccc3)c3ccccc3)N2C(=O)[C@@H](NC(=O)c2cc3cc(C(F)(F)P(=O)(O)O)ccc3[nH]2)C1 [Compound 56, ((2-(((5S,8S,10aR)-3-acetyl-8-(benzyl(phenyl)carbamoyl)-6-oxodecahydropyrrolo[1,2-a][1,5]diazocin-5-yl)carbamoyl)-1H-indol-5-yl)difluoromethyl)phosphonic acid]
1 to 10	0.3 to 3	CC(=O)N1CC[C@H]2CC[C@@H](C(=O)N3CCCc4ccccc43)N2C(=O)[C@@H](NC(=O)c2cc3cc(C(F)(F)P(=O)(O)O)ccc3[nH]2)C1 [Compound 57, ((2-(((5S,8S,10aR)-3-acetyl-6-oxo-8-(1,2,3,4-tetrahydroquinoline-1-carbonyl)decahydropyrrolo[1,2-a][1,5]diazocin-5-yl)carbamoyl)-1H-indol-5-yl)difluoromethyl)phosphonic acid]
